# Reference: patent US20220143079A1, “ORAL ADMINISTRATION OF SODIUM CHLORIDE TO PREVENT COMPLICATIONS ASSOCIATED WITH BOWEL CLEANSING WITH STIMULANT LAXATIVES” (SEAFORD PHARMACEUTICALS INC., priority 2019, published 2022)
# Test system: colon of patients scheduled for colonoscopy
# Test: Quality of colon cleaning assessed by Boston Scale at colonoscopy
# Type: in vivo
# Details: within the claimed regimen, result in words
# Procedure: A prospective, open-label study involving four patients scheduled for their regular colonoscopy exam was conducted (Canadian Phase Onward Inc., Toronto, Ontario. CA). […] In addition to the standard instructions not to eat food and to drink only clear liquids, the selected patients were instructed to do the following on the day before the colonoscopy was to be performed: 1. at 10:00 AM orally taking three bisacodyl pills (Dulcolax®, Boehringer Ingelheim, Ingelheim am Rhein, Germany) with water (chewing or crushing the pills was prohibited); 2. at 3:00 PM dissolving the contents of a first sachet containing sodium picosulfate/magnesium oxide/citric acid combination ([…]®, Recordati S.p.A, Milan, Italy) with cold water and ingesting the solution after carefully stirring the solution to insure that the sodium picosulfate/magnesium oxide/citric acid combination was dissolved completely; […] […] Upon arrival at the clinic on the day of the colonoscopy, the patient's weight was recorded and blood pressure was taken and recorded and an out-patient colonoscopy was performed on each patient (North York Endoscopy Centre Inc., Toronto, Ontario, CA). The quality of the colon cleaning was assessed using the Boston Scale which is a well-established way of identifying the degree of colon cleanliness.
compound,measurement,value
"CC(=O)Oc1ccc(C(c2ccc(OC(C)=O)cc2)c2ccccn2)cc1 [bisacodyl, ρ,ρ-diacetoxy-diphenyl-2-pyridylmethane]",observed cleansing effect of the regimen component,initial expulsion of the bulk of the fecal matter
